Measurements reported in patent US20230022157A1 (Achillion Pharmaceuticals, Inc., priority 2018, published 2023).
Read-outs that look alike come from different tables or passages of the source.

Target: T1, Human Factor D (Homo sapiens, UniProt P00746)
T1 construct: purified from human serum; purchased Complement Technology, Inc; host or cells: human serum (natural protein, not recombinant)
Test: Human Factor D Assay
Type: biochemical
Settings: Human Factor D 80 nM, substrate Z-L-Lys-SBzl, read-out: IC50 (Stars)
Outline: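 Serum-purified human factor D (80 nM final) preincubated 5 min at room temperature with test compound in 50 mM Tris, 1M NaCl, pH 7.5. Z-L-Lys-SBzl substrate and DTNB then added, each at 100 μM final. IC50 from nonlinear regression of reaction rate against compound concentration.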

T1 sequence (P00746 26-253): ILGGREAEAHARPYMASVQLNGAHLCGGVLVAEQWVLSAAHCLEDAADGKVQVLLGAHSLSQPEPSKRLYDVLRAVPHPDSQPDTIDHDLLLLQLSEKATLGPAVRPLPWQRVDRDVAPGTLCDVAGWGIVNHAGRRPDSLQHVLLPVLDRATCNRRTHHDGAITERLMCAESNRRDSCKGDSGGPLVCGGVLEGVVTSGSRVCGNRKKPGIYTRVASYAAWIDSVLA

IC50 (Table 2) [nM]	IC50 (assay of Example 3) [nM]	Structure (SMILES)
< 1000	–	COC(=O)c1ncc(-c2cc(C)c3c(c2)c(C(C)=O)nn3CC(=O)N2[C@H](C(=O)Nc3nc(Br)c(F)cc3C)C[C@@]3(C)C[C@@H]23)cn1 [Compound 44, Methyl 5-(3-acetyl-1-(2-((1R,3S,5R)-3-((6-bromo-5-fluoro-3-methylpyridin-2-yl)carbamoyl)-5-methyl-2-azabicyclo[3.1.0]hexan-2-yl)-2-oxoethyl)-7-methyl-1H-indazol-5-yl)pyrimidine-2-carboxylate]
< 1000	–	COC(=O)c1ncc(-c2ccc3c(c2)c(C(C)=O)nn3CC(=O)N2[C@H](C(=O)Nc3nc(Br)ccc3C)C[C@@]3(C)C[C@@H]23)cn1 [Compound 46, methyl 5-(3-acetyl-1-(2-((1R,3S,5R)-3-((6-bromo-3-methylpyridin-2-yl)carbamoyl)-5-methyl-2-azabicyclo[3.1.0]hexan-2-yl)-2-oxoethyl)-1H-indazol-5-yl)pyrimidine-2-carboxylate]
< 1000	–	CC(=O)c1cn(CC(=O)N2[C@H](C(=O)Nc3cncc(Br)n3)C[C@@]3(C)C[C@@H]23)c2c(C)cc(-c3cnc(CO)nc3)cc12 [Compound 77, (1R,3S,5R)-2-(2-(3-acetyl-5-(2-(hydroxymethyl)pyrimidin-5-yl)-7-methyl-1H-indol-1-yl)acetyl)-N-(6-bromopyrazin-2-yl)-5-methyl-2-azabicyclo[3.1.0]hexane-3-carboxamide]
< 1000	–	Cc1ncc(-c2cc3c(C(N)=O)nn(CC(=O)N4[C@H](C(=O)Nc5nc(Br)c(F)cc5C)C[C@@]5(C)C[C@@H]45)c3c(CO)n2)cn1 [Compound 184, 1-(2-((1R,3S,5R)-3-((6-bromo-5-fluoro-3-methylpyridin-2-yl)carbamoyl)-5-methyl-2-azabicyclo[3.1.0]hexan-2-yl)-2-oxoethyl)-7-(hydroxymethyl)-5-(2-methylpyrimidin-5-yl)-1H-pyrazol[3,4-c]pyridine-3-carboxamide]
–	< 1000	CC(=O)c1nn(CC(=O)N2C[C@H](F)C[C@H]2C(=O)Nc2cccc(Br)n2)c2ccc(-c3ccc(C)c(F)c3)cc12 [Compound 34, (2S,4R)-1-(2-(3-Acetyl-5-(3-fluoro-4-methylphenyl)-1H-indazol-1-yl)acetyl)-N-(6-bromopyridin-2-yl)-4-fluoropyrrolidine-2-carboxamide]
< 1000	–	CC(=O)c1cn(CC(=O)N2[C@H](C(=O)Nc3nc(C(F)(F)F)ccc3C)C[C@@]3(C)C[C@@H]23)c2c(C)cc(-c3cnc4cc(C)nn4c3)cc12 [Compound 199, (1R,3S,5R)-2-(2-(3-acetyl-7-methyl-5-(2-methylpyrazolo[1,5-a]pyrimidin-6-yl)-1H-indol-1-yl)acetyl)-5-methyl-N-(3-methyl-6-(trifluoromethyl)pyridin-2-yl)-2-azabicyclo[3.1.0]hexane-3-carboxamide]
< 1000	–	CC(=O)c1nn(CC(=O)N2[C@H](C(=O)Nc3nc(OC(F)(F)F)ccc3C)C[C@@]3(C)C[C@@H]23)c2c(C)cc(-c3cnc(CO)nc3)cc12 [Compound 55, (1R,3S,5R)-2-(2-(3-acetyl-5-(2-(hydroxymethyl)pyrimidin-5-yl)-7-methyl-1H-indazol-1-yl)acetyl)-5-methyl-N-(3-methyl-6-(trifluoromethoxy)pyridin-2-yl)-2-azabicyclo[3.1.0]hexane-3-carboxamide]
< 1000	–	CC(=O)c1nn(CC(=O)N2[C@H](C(=O)Nc3nc(Br)ccc3C)C[C@@]3(C)C[C@@H]23)c2c(C)cc(-c3cncc(S(C)(=O)=O)c3)cc12 [Compound 129, (1R,3S,5R)-2-(2-(3-Acetyl-7-methyl-5-(5-(methylsulfonyl)pyridin-3-yl)-1H-indazol-1-yl)acetyl)-N-(6-bromo-3-methylpyridin-2-yl)-5-methyl-2-azabicyclo[3.1.0]hexane-3-carboxamide]
< 1000	–	CC(=O)c1nn(CC(=O)N2C[C@H]3C[C@H]3[C@H]2C(=O)Nc2nc(Br)ccc2C)c2ccc(-c3cncc(S(N)(=O)=O)c3)cc12 [Compound 69, (1R,2S,5S)-3-(2-(3-Acetyl-5-(5-sulfamoylpyridin-3-yl)-1H-indazol-1-yl)acetyl)-N-(6-bromo-3-methylpyridin-2-yl)-3-azabicyclo[3.1.0]hexane-2-carboxamide]
< 1000	–	CC(=O)c1cn(CC(=O)N2[C@H](C(=O)Nc3nc(Br)ccc3C)C[C@@]3(C)C[C@@H]23)c2c(C)cc(-c3cnc(C(C)O)nc3)cc12 (stereo partly drawn) [Compound 157, (1R,3S,5R)-2-(2-(3-acetyl-5-(2-(1-hydroxyethyl)pyrimidin-5-yl)-7-methyl-1H-indol-1-yl)acetyl)-N-(6-bromo-3-methylpyridin-2-yl)-5-methyl-2-azabicyclo[3.1.0]hexane-3-carboxamide]
< 1000	–	CC(=O)c1cn(CC(=O)N2[C@H](C(=O)Nc3cc(F)cc(Br)n3)C[C@@]3(C)C[C@@H]23)c2c(C)cc(-c3cnc(C)nc3)cc12 [Compound 192, (1R,3S,5R)-2-(2-(3-acetyl-7-methyl-5-(2-methylpyrimidin-5-yl)-1H-indol-1-yl)acetyl)-N-(6-bromo-4-fluoropyridin-2-yl)-5-methyl-2-azabicyclo[3.1.0]hexane-3-carboxamide]
< 1000	–	CC(=O)c1nn(CC(=O)N2[C@H](C(=O)Nc3ccc(F)c(Br)n3)C[C@@]3(C)C[C@@H]23)c2c(C)cc(-c3cnc(CO)nc3)cc12 [Compound 120, (1R,3S,5R)-2-(2-(3-acetyl-5-(2-(hydroxymethyl)pyrimidin-5-yl)-7-methyl-1H-indazol-1-yl)acetyl)-N-(6-bromo-5-fluoropyridin-2-yl)-5-methyl-2-azabicyclo[3.1.0]hexane-3-carboxamide]
< 1000	–	CC(=O)c1nn(CC(=O)N2[C@H](C(=O)Nc3nc(C(F)(F)F)ccc3C)C[C@@]3(C)C[C@@H]23)c2c(C)cc(-c3cnc(CO)nc3)cc12 [Compound 54, (1R,3S,5R)-2-(2-(3-acetyl-5-(2-(hydroxymethyl)pyrimidin-5-yl)-7-methyl-1H-indazol-1-yl)acetyl)-5-methyl-N-(3-methyl-6-(trifluoromethyl)pyridin-2-yl)-2-azabicyclo[3.1.0]hexane-3-carboxamide]
< 1000	–	Cc1ncc(-c2cc3c(C(N)=O)nn(CC(=O)N4[C@H](C(=O)Nc5cncc(Br)n5)C[C@@]5(C)C[C@@H]45)c3c(C)n2)cn1 [Compound 92, 1-{2-[3-(6-Bromo-pyrazin-2-ylcarbamoyl)-5-methyl-2-aza-bicyclo[3.1.0]hex-2-yl]-2-oxo-ethyl}-7-methyl-5-(2-methyl-pyrimidin-5-yl)-1H-pyrazolo[3,4-c]pyridine-3-carboxylic acid amide]
< 1000	–	CC(=O)c1cn(CC(=O)N2[C@H](C(=O)Nc3cnc(C)c(Br)n3)C[C@@]3(C)C[C@@H]23)c2c(C)cc(-c3cnc(C)nc3)cc12 [Compound 160, (1R,3S,5R)-2-(2-(3-acetyl-7-methyl-5-(2-methylpyrimidin-5-yl)-1H-indol-1-yl)acetyl)-N-(6-bromo-5-methylpyrazin-2-yl)-5-methyl-2-azabicyclo[3.1.0]hexane-3-carboxamide]
< 1000	–	COCc1ncc(-c2cc(C)c3c(c2)c(C(C)=O)nn3CC(=O)N2[C@H](C(=O)Nc3nc(Br)ccc3C)C[C@@]3(C)C[C@@H]23)cn1 [Compound 60, (1R,3S,5R)-2-(2-(3-acetyl-5-(2-(methoxymethyl)pyrimidin-5-yl)-7-methyl-11H-indazol-1-yl)acetyl)-N-(6-bromo-3-methylpyridin-2-yl)-5-methyl-2-azabicyclo[3.1.0]hexane-3-carboxamide]
< 1000	–	CC(=O)c1nn(CC(=O)N2[C@H](C(=O)Nc3nc(Br)ccc3C)C[C@@]3(C)C[C@@H]23)c2c(C)cc(-c3cnc(C#N)nc3)cc12 [Compound 57, (1R,3S,5R)-2-(2-(3-acetyl-5-(2-cyanopyrimidin-5-yl)-7-methyl-1H-indazol-1-yl)acetyl)-N-(6-bromo-3-methylpyridin-2-yl)-5-methyl-2-azabicyclo[3.1.0]hexane-3-carboxamide]
< 1000	–	CC(=O)c1nn(CC(=O)N2[C@H]3CC[C@H](C3)[C@H]2C(=O)Nc2nc(C(F)(F)F)ccc2C)c2ccc(-c3cnc4cc(C)nn4c3)cc12 [Compound 213, (1S,3S,4R)-2-(2-(3-acetyl-5-(2-methylpyrazolo[1,5-a]pyrimidin-6-yl)-1H-indazol-1-yl)acetyl)-N-(3-methyl-6-(trifluoromethyl)pyridin-2-yl)-2-azabicyclo[2.2.1]heptane-3-carboxamide]
–	< 1000	CC(=O)c1nn(CC(=O)N2[C@H](C(=O)Nc3nc(Br)ccc3C)C[C@@]3(CO)C[C@@H]23)c2c(C)cc(-c3cnc(C)nc3)cc12 [Compound 21, (1R,3S,5S)-2-(2-(3-Acetyl-7-methyl-5-(2-methylpyrimidin-5-yl)-1H-indazol-1-yl)acetyl)-N-(6-bromo-3-methylpyridin-2-yl)-5-(hydroxymethyl)-2-azabicyclo[3.1.0]hexane-3-carboxamide]

Structure (SMILES)	IC50 (Table 2) [nM]	IC50 (assay of Example 3) [nM]
CC(=O)c1nn(CC(=O)N2[C@H](C(=O)N[C@H](C)CC3CC3)C[C@@]3(C)C[C@@H]23)c2c(C)cc(-c3cnc(C)nc3)cc12 [Compound 133, (1R,3S,5R)-2-{2-[3-acetyl-7-methyl-5-(2-methylpyrimidin-5-yl)indazol-1-yl]acetyl}-N-[(2R)-1-cyclopropylpropan-2-yl]-5-methyl-2-azabicyclo[3.1.0]hexane-3-carboxamide]	< 1000	–
CC(=O)c1nn(CC(=O)N2[C@H](C(=O)NCc3ccc4c(c3)CCCC4)C[C@@]3(C)C[C@@H]23)c2c(C)cc(-c3cnc(C)nc3)cc12 [Compound 150, (1R,3S,5R)-2-{2-[3-acetyl-7-methyl-5-(2-methylpyrimidin-5-yl)indazol-1-yl]acetyl}-5-methyl-N-(5,6,7,8-tetrahydronaphthalen-2-ylmethyl)-2-azabicyclo[3.1.0]hexane-3-carboxamide]	< 1000	–
